Patent US5380834A, “Immuno-suppressive agent” (Ishihara Sangyo Kaisha Ltd., priority 1992, dated 1995)
In brackets after ≈: the same amount, converted by molar mass.

Tests used:
[1] = test system: Carrageenan-induced acute inflammation in rats; experiment: Carrageenan-induced paw edema model (anti-inflammatory activity); format: in vivo, SD male rat; conditions: 50 mg/Kg orally one hour before carrageenan, 3 hours, n=4; control 144 ± 8; P < 0.01 (No. 29), P < 0.05 (Nos. 1, 17)
Procedure: A test for an anti-inflammatory activity was conducted by means of carrageenan-induced paw edema model which is commonly used for evaluation of the effectiveness of a common anti-inflammatory agent (NSAID).
0.1 ml of a 1% λ-carrageenan solution was injected intradermally at the sole of the right paw of a SD male rat (six weeks old). Three hours later, the sole volumes of paws on both sides were measured, and the difference in the volume between the right paw and the left paw was taken as the degree of edema. The test compound was orally administered in an amount of 1 ml/100 g (body weight) one hour prior to the administration of carrageenan. To the control group, a physiological saline was administered in the same amount.

murine bone mallow cells = experiment: Effects on the murine bone mallow cells (proliferation, 3H-TdR uptake); format: cell-based, BALB/c mouse; conditions: Mus musculus, bone marrow cells; 20% L929 culture supernatant, 48 hours, 3H-TdR uptake; Tables 12-15; read-out: IC50 value, c (murine bone mallow cells)

## O=C(O[C@H]1C=C[C@H]2CO[C@@H]1O2)c1ccco1 [Compound 17, 1,6-anhydro-3,4-dideoxy-2-O-(2-furancarbonyl)-β-D-threo-hex-3-enopyranose]
[1]
  Swelling of paw, Average ± SD: 95 ± 26 × 10^-2 cm^3
Murine bone mallow cells
  IC50: 510 µg/mL (≈ 2300 µM)

## O[C@H]1C=C[C@H]2CO[C@@H]1O2 [Compound 1, 1,6-anhydro-3,4-dideoxy-β-D-threo-hex-3-enopyranose]
[1]
  Swelling of paw, Average ± SD: 100 ± 33 × 10^-2 cm^3
Murine bone mallow cells
  IC50: 69 µg/mL (≈ 539 µM)

## C#C[C@]1(O)C=C[C@H]2CO[C@@H]1O2 [Compound 29]
[1]
  Swelling of paw, Average ± SD: 97 ± 22 × 10^-2 cm^3
Murine bone mallow cells
  IC50: > 1000 µg/mL
